Consider eight compounds from US11339165B2, “Pyrazolopyrimidines having activity against the respiratory syncytial virus (RSV)” (priority 2017, dated 2022).

Series [1] relates to rgRSV224 virus. As to the kind of experiment: Antiviral activity: rgRSV224 (GFP) replication in HeLa cells. It counts as cell-based, respiratory syncytial virus (RSV). The note with it: human respiratory syncytial virus, HeLa, 72 h, read-out: RSV HELA EC50 (μM), rgRSV224 virus (MOI=1), HeLa cells, GFP expression three days post-virus exposure.
A short description of series [2]: in vitro. The conditions noted are these: human, TOX HELA CC50 (μM).
Procedure: Black 384-well clear-bottom microtiter plates (Corning, Amsterdam, The Netherlands) were filled via acoustic drop ejection using the echo liquid handler (Labcyte, Sunnyvale, Calif.). 200 nL of compound stock solutions (100% DMSO) were transferred to the assay plates. 9 serial 4-fold dilutions of compound were made, creating per quadrant the same compound concentration. The assay was initiated by adding 10 μL of culture medium to each well (RPMI medium without phenol red, 10% FBS-heat inactivated, 0.04% gentamycin (50 mg/mL). All addition steps are done by using a multidrop dispenser (Thermo Scientific, Erembodegem, Belgium). Next, rgRSV224 virus (MOI=1) diluted in culture medium was added to the plates. rgRSV224 virus is an engineered virus that includes an additional GFP gene (Hallak L K, Spillmann D, Collins P L, Peeples M E. Glycosaminoglycan sulfation requirements for respiratory syncytial virus infection; Journal of virology (2000), 74(22), 10508-13) and was in-licensed from the NIH (Bethesda, Md., USA). Finally, 20 μL of a HeLa cell suspension (3,000 cells/well) were plated. Medium, virus- and mock-infected controls were included in each test. The wells contain 0.05% DMSO per volume. Cells were incubated at 37° C. in a 5% CO2 atmosphere. Three days post-virus exposure, viral replication was quantified by measuring GFP expression in the cells by an in house developed MSM laser microscope (Tibotec, Beerse, Belgium). The EC50 was defined as the 50% inhibitory concentration for GFP expression. In parallel, compounds were incubated for three days in a set of white 384-well microtiter plates (Corning) and the cytotoxicity of compounds in HeLa cells was determined by measuring the ATP content of the cells using the ATPlite kit (Perkin Elmer, Zaventem, Belgium) according to the manufacturer's instructions. The CC50 was defined as the 50% concentration for cytotoxicity.

A word on the EC50: it is the concentration giving half of the maximal effect. The CC50 is the concentration at which the toxic effect on the cells reaches its halfway point.

As to `C[C@@H]1c2ccccc2CCN1C(=O)c1cc(-c2cncnc2)n2nc(-c3ccc(N4CC[C@H](C(N)=O)C4)cc3F)cc2n1` [Compound 64, (3S)-1-(3-Fluoro-4-{5-[(1R)-1-methyl-1,2,3,4-tetrahydroisoquinoline-2-carbonyl]-7-(pyrimidin-5-yl)pyrazolo[1,5-a]pyrimidin-2-yl}phenyl)pyrrolidine-3-carboxamide], in series [1], the EC50 was determined as 0.029 µM. In series [2], this compound returned a CC50 at 3 days of 8.9 µM.
As for `COC(=O)N[C@@H]1CCN(c2ccc(-c3cc4nc(C(=O)N5CCc6ccccc6[C@H]5C)cc(C5CC5)n4n3)c(F)c2)C1` [Compound 9, Methyl N-[(3R)-1-[4-{7-cyclopropyl-5-[(1R)-1-methyl-1,2,3,4-tetrahydroisoquinoline-2-carbonyl]pyrazolo[1,5-a]pyrimidin-2-yl}-3-fluorophenyl)pyrrolidin-3-yl]carbamate], in series [1], the EC50 was found to be 0.108 µM. Moreover, the CC50 at 3 days in series [2] was above 100 µM.
The like results for `C[C@@H]1c2ccsc2CCN1C(=O)c1cc(C2CC2)n2nc(-c3ccc(N4CC[C@@](C)(CC(N)=O)C4)cc3F)cc2n1` (single isomer, unassigned) [Compound 26, 2-[(3*S)-1-(4-{7-Cyclopropyl-5-[(4*R)-4-methyl-4,5,6,7-tetrahydro-thieno[3,2-c]pyridine-5-carbonyl]pyrazolo[1,5-a]pyrimidin-2-yl}-3-fluorophenyl)-3-methylpyrrolidin-3-yl]acetamide] were, in that order, 0.02 µM and 29.6 µM.
Regarding `C[C@@H]1c2ccccc2CCN1C(=O)c1cc(C2CC2)n2nc(-c3ccc(N4CC[C@H](S(C)(=O)=O)C4)cc3F)cc2n1` [Compound 18, (1R)-2-(7-Cyclopropyl-2-{2-fluoro-4-[(3S)-3-methanesulfonylpyrrolidin-1-yl]phenyl}-pyrazolo[1,5-a]pyrimidine-5-carbonyl)-1-methyl-1,2,3,4-tetrahydroisoquinoline], in series [1], the EC50 came out at 0.044 µM. This compound returned a CC50 at 3 days in series [2] above 100 µM.
As for `C[C@@H]1c2ccccc2CCN1C(=O)c1cc(C2CC2)n2nc(-c3ccc(N4CC[C@H](C(=O)NS(C)(=O)=O)C4)nc3F)cc2n1` [Compound 51, (3S)-1-(5-{7-Cyclopropyl-5-[(1R)-1-methyl-1,2,3,4-tetrahydroisoquinoline-2-carbonyl]-pyrazolo[1,5-a]pyrimidin-2-yl}-6-fluoropyridin-2-yl)-N-methanesulfonylpyrrolidine-3-carboxamide], the EC50 in series [1] is 0.131 µM. Further, the CC50 at 3 days in series [2] came out at 67.9 µM.
For `C[C@@H]1c2ccccc2CCN1C(=O)c1cc(C2CC2)n2nc(-c3ccc(N4CCCC(C(N)=O)C4)cc3F)cc2n1` (stereo partly drawn) [Compound 69, 1-(4-{7-Cyclopropyl-5-[(1R)-1-methyl-1,2,3,4-tetrahydroisoquinoline-2-carbonyl]-pyrazolo[1,5-a]pyrimidin-2-yl}-3-fluorophenyl)piperidine-3-carboxamide] the same measures were 0.059 µM and 33.2 µM.
On to `C[C@@H]1c2ccccc2CCN1C(=O)c1cc(C2CC2)n2nc(-c3ccc(N4CC[C@@H](OC(N)=O)C4)nc3F)cc2n1` [Compound 85, (3R)-1-(5-{7-Cyclopropyl-5-[(1R)-1-methyl-1,2,3,4-tetrahydroisoquinoline-2-carbonyl]-pyrazolo[1,5-a]pyrimidin-2-yl}-6-fluoropyridin-2-yl)pyrrolidin-3-yl carbamate], for which the EC50 in series [1] stood at 0.152 µM. For the same compound, in series [2], the CC50 at 3 days is above 100 µM.
For the compound `C[C@@H]1c2ccccc2CCN1C(=O)c1cc(-c2ccc(Cl)cc2)n2nc(-c3ccc(N4CC[C@H](C(N)=O)C4)cc3F)cc2n1` [Compound 59, (3S)-1-{4-[7-(4-Chlorophenyl)-5-[(1R)-1-methyl-1,2,3,4-tetrahydroisoquinoline-2-carbonyl]pyrazolo[1,5-a]pyrimidin-2-yl]-3-fluorophenyl}pyrrolidine-3-carboxamide], the EC50 in series [1] was 0.047 µM.
